Source: publication PMC7377239, “Cardiovascular Effects of Polychlorinated Biphenyls and Their Major Metabolites” (Environmental Health Perspectives, 2020)
Like-named read-outs stand apart in the source and are kept apart here.

Key:
[1] = test system: iCell endothelial cells (human iPSC-derived ECs); assay: High-content imaging cytotoxicity in iCell endothelial cells, 24 h; type: cell-based; conditions: Homo sapiens, Endothelial cell; for viability at 0.1 µM / activity at 0.1 µM: 0.10 µM
Summary of the method: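 Human iPSC-derived endothelial cells (passages 1–5) were grown to a fibronectin-coated monolayer, then exposed 24 h at 37 °C with 0.5% DMSO vehicle. Staining was Hoechst 33342, MitoTracker Orange and calcein AM, read by high-content imaging. Point of departure came from 4-parameter logistic fits, with a 1-SD vehicle cutoff and 100 µM as the top concentration.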

[2] = test system: iCell endothelial cells (human iPSC-derived ECs); assay: Tube formation (tubulogenesis) assay in iCell endothelial cells, 18 h; type: cell-based
Summary of the method: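 iCell ECs (passages 1–5) seeded 7,500 cells/well on reduced-growth-factor Geltrex in starvation medium, exposed overnight at 37°C to compounds in triplicate concentration–response (0.5% DMSO vehicle). Calcein AM staining, 4× imaging, angiogenesis image analysis; readouts normalized to vehicle, four-parameter logistic fit, POD at 1 SD of vehicle; 100 μM assigned NOAEL if no response.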

[3] = iPSC-EC, 0.00 µM = 100.00, read-out: endo.cyto.24hr
[4] = iPSC-EC, 0.00 µM = 100.00, read-out: endo.mito.24hr
[5] = iPSC-EC, 0.00 µM = 100.00, read-out: endo.mitoint.24hr
[6] = iPSC-EC, 0.00 µM = 100.00, read-out: endo.nma.24hr
[7] = iPSC-EC, 0.00 µM = 100.00, read-out: endo.tc.24hrs
[8] = iPSC-EC, 0.10 µM, 0.00 µM = 100.00
[9] = iPSC-EC, 10.00 µM, 0.00 µM = 100.00
[10] = iPSC-EC, 100.00 µM, 0.00 µM = 100.00

Clc1ccc(Cl)c(-c2c(Cl)ccc(Cl)c2Cl)c1Cl [(+)-PCB 136, 2,2′,3,3′,6,6′-hexachlorobiphenyl]
minimal effective concentration ([1]; endothelial cells (endo), nma, 24 hr, read-out: POD endo.nma.24hr): 100 µM | viability at 0.01 µM [1, 3]: 103% | activity at 0.01 µM [1, 4]: 103% | activity at 0.01 µM [1, 5]: 96.4% | activity at 0.01 µM [1, 6]: 102% | viability at 0.01 µM [1, 7]: 103% | viability at 0.1 µM [1, 3]: 103% | activity at 0.1 µM [1, 4]: 104% | activity at 0.1 µM [1, 5]: 95.5% | activity at 0.1 µM [1, 6]: 98.7% | viability at 0.1 µM [1, 7]: 103% | viability at 1 µM [1, 3]: 103% | activity at 1 µM [1, 4]: 103% | activity at 1 µM [1, 5]: 92.5% | activity at 1 µM [1, 6]: 98.5% | viability at 1 µM [1, 7]: 103% | viability at 10 µM [1, 3]: 101% | activity at 10 µM [1, 4]: 102% | activity at 10 µM [1, 5]: 92.2% | activity at 10 µM [1, 6]: 99.4% | viability at 10 µM [1, 7]: 101% | viability at 100 µM [1, 3]: 46.7% | activity at 100 µM [1, 4]: 41.6% | activity at 100 µM [1, 5]: 51.5% | activity at 100 µM [1, 6]: 104% | viability at 100 µM [1, 7]: 50.8% | minimal effective concentration ([1]; iPSC-EC, 100.00 = highest concentration tested, read-out: endo.nma.24hr POD): 100 µM | minimal effective concentration ([2]; Homo sapiens, Endothelial cell, endothelial cells (endo), tube formation mtl, 18 hr, read-out: POD endo.mtl.18hr): 63.5 µM | activity at 0.01 µM ([2]; Homo sapiens, Endothelial cell, iPSC-EC, 0.01 µM, 0.00 µM = 100.00, read-out: endo.mtl.18hr): 115% | activity at 0.01 µM ([2]; Homo sapiens, Endothelial cell, iPSC-EC, 0.01 µM, 0.00 µM = 100.00, read-out: endo.tta.18hr): 133% | activity at 0.01 µM ([2]; Homo sapiens, Endothelial cell, iPSC-EC, 0.01 µM, 0.00 µM = 100.00, read-out: endo.ttl.18hr): 135% | activity at 0.1 µM ([2]; Homo sapiens, Endothelial cell, iPSC-EC, 0.10 µM, 0.00 µM = 100.00, read-out: endo.mtl.18hr): 113% | activity at 0.1 µM ([2]; Homo sapiens, Endothelial cell, iPSC-EC, 0.10 µM, 0.00 µM = 100.00, read-out: endo.ttl.18hr): 132% | activity at 1 µM ([2]; Homo sapiens, Endothelial cell, iPSC-EC, 1.00 µM, 0.00 µM = 100.00, read-out: endo.mtl.18hr): 111% | activity at 1 µM ([2]; Homo sapiens, Endothelial cell, iPSC-EC, 1.00 µM, 0.00 µM = 100.00, read-out: endo.tta.18hr): 134% | activity at 1 µM ([2]; Homo sapiens, Endothelial cell, iPSC-EC, 1.00 µM, 0.00 µM = 100.00, read-out: endo.ttl.18hr): 139% | activity at 10 µM ([2]; Homo sapiens, Endothelial cell, iPSC-EC, 10.00 µM, 0.00 µM = 100.00, read-out: endo.mtl.18hr): 107% | minimal effective concentration ([2]; Homo sapiens, Endothelial cell, iPSC-EC, 100.00 = highest concentration tested, read-out: endo.mtl.18hr POD): 63.5 µM | endo.tlps.18hr ([2]; iPSC-EC, 0.01 µM, 0.00 µM = 100.00): 101.49 | endo.tlps.18hr [2, 8]: 128.16 | endo.tta.18hr [2, 8]: 137.60 | endo.tlps.18hr ([2]; iPSC-EC, 1.00 µM, 0.00 µM = 100.00): 103.43 | endo.tlps.18hr [2, 9]: 157.84 | endo.tta.18hr [2, 9]: 197.38 | endo.ttl.18hr [2, 9]: 177.54 | endo.mtl.18hr [2, 10]: 68.39 | endo.tlps.18hr [2, 10]: 43.04 | endo.tta.18hr [2, 10]: 78.91 | endo.ttl.18hr [2, 10]: 80.17
